{"source": "patent US4460508A", "about": "“5-Diazacycloalkylimidazo[1,2-c][1,3]benzodiazepines” (Ciba-Geigy Corporation, priority 1982, dated 1984)", "system": "α-adrenergic", "test": "α-adrenergic blocking activity in vitro", "data": [{"compound": "CN1CCN(C2=Nc3ccccc3Cc3nccn32)CC1", "note": "[example 1, 5-(4-methyl-1-piperazinyl)-11H-imidazo[1,2-c][1,3]benzodiazepine]", "values": [{"measurement": "α-adrenergic blocking activity", "result": "only minimal"}]}]}
